Assay results as given in US20200131669A1, “CYCLIC PEPTIDE COMPOUND HAVING HIGH MEMBRANE PERMEABILITY, AND LIBRARY CONTAINING SAME” (Chugai Seiyaku Kabushiki Kaisha, priority 2017, published 2020).
Like-named read-outs stand apart in the source and are kept apart here. Starred links: 1 amine or outer side, 2 acyl side, 3 side chain; linkers in the order of their positions; H or OH if unused. Positions of bridges follow the written chain, without caps; N, C: chain ends. Non-standard residues stand in square brackets, D forms with d. Residues, ends and D or L forms follow the SMILES beside them. *: point of attachment. Glu(NHSO2Me) = CS(=O)(=O)NC(=O)CC[C@H](N)C(=O)O; 3Pal(6-NMe2) = CN(C)c1ccc(C[C@H](N)C(=O)O)cn1; NMePhe(3-Cl) = CN[C@@H](Cc1cccc(Cl)c1)C(=O)O; Gly(NCH2CH2Ph) = O=C(O)CNCCc1ccccc1; N(isopentyl)Gly = CC(C)CCNCC(=O)O; X3 = O=C([C@H](CCCCO)N[*:1])[*:2]; NMeF = CN[C@@H](Cc1ccccc1)C(=O)O; NMeGABA = CN(CCCC(=O)[*:2])[*:1]; NMeL = CN[C@@H](CC(C)C)C(=O)O; NMeV = CN[C@H](C(=O)O)C(C)C; NMeAbu = CC[C@H](NC)C(=O)O; NMeS = CN[C@@H](CO)C(=O)O; NMeA = CN[C@@H](C)C(=O)O; Piperidide = C1CCN(*)CC1; Abu = CC[C@H](N)C(=O)O; NBuGly = CCCCNCC(=O)O; NPrGly = CCCNCC(=O)O; Sar = CNCC(=O)O; tBu = CC(C)(C)*; Propyl = CCC*

Assay: Caco-2 membrane permeability, improved method as used in the following Examples (96-well, 20 to 24 h preincubation)
Type: in vitro ADME
Conditions: human
Summary of the method: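 Papp (cm/sec) was derived from LC/MS of basal samples collected 180 min after apical dosing in FaSSIF/HBSS pH 6.0 with 1% DMSO, against a basal HBSS pH 7.4 receiver containing 4% BSA. Three-week Caco-2 cultures were first preincubated with compound in DMEM+FaSSIF at 37 °C for 20–24 h.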

Row | SMILES | Papp A→B at 180 min (Caco-2, Caco-2) | further results
1 | CCCCN1CC(=O)N(C)[C@@H](C(C)C)C(=O)N[C@H](C(=O)N2CCCCC2)CC(=O)N(C)[C@@H](CC(C)C)C(=O)N[C@@H](CCC(=O)NS(C)(=O)=O)C(=O)N(C)[C@@H](CC(C)C)C(=O)N(C)[C@@H](Cc2ccccc2)C(=O)N[C@@H](CC(C)C)C(=O)N(C)[C@@H](Cc2ccccc2)C(=O)N(C)[C@@H](CC(C)C)C(=O)N[C@@H]([C@@H](C)O)C1=O [pd62] ([NMeL][Glu(NHSO2Me)][NMeL][NMeF]L[NMeF][NMeL]T[NBuGly][NMeV]D-Piperidide; lactam N-11) | < 0.13 ×10⁻⁶ cm/s | –
2 | CC[C@H](C)[C@H]1C(=O)N[C@@H]([C@@H](C)O)C(=O)N(C)CC(=O)N(C)[C@@H](CC(C)C)C(=O)N[C@H](C(=O)N2CCCCC2)CC(=O)N(C)[C@@H](C)C(=O)N[C@@H](CC(C)C)C(=O)N(C)[C@@H](CC(C)C)C(=O)N(C)[C@@H](C)C(=O)N[C@@H](COc2ccccc2Cl)C(=O)N(C)[C@@H](Cc2ccccc2)C(=O)N1C [pd341] | 1.4 ×10⁻⁶ cm/s | –
3 | CCCOC[C@H]1C(=O)N[C@@H](Cc2ccc(N(C)C)nc2)C(=O)N(C)[C@@H](Cc2cccc(Cl)c2)C(=O)N(C)[C@@H](C)C(=O)N[C@@H]([C@@H](C)O)C(=O)N(CCC(C)C)CC(=O)N(C)[C@@H](C(C)C)C(=O)N[C@H](C(=O)N2CCCCC2)CC(=O)N(C)[C@@H](C)C(=O)N[C@@H](CC(C)C)C(=O)N(C)[C@@H](CC(C)C)C(=O)N1C [pd401] ([NMeA]L[NMeL][NMeS](Propyl)[3Pal(6-NMe2)][NMePhe(3-Cl)][NMeA]T[N(isopentyl)Gly][NMeV]D-Piperidide; lactam N-11) | 2.9 ×10⁻⁶ cm/s | –
4 | CCCCN1CC(=O)N(C)[C@@H](CC(C)C)C(=O)N[C@@H](CCC(=O)NS(C)(=O)=O)C(=O)N(C)[C@@H](Cc2cccc(Cl)c2)C(=O)N(C)[C@@H](C(C)C)C(=O)N[C@H](C(=O)N2CCCCC2)CC(=O)N[C@H](CC(C)C)C(=O)N(C)[C@@H](Cc2cccc(Cl)c2)C(=O)N[C@@H](CC(C)C)C(=O)N(C)[C@@H](CC(C)C)C(=O)N[C@@H]([C@@H](C)O)C1=O [pd60] ([dL][NMePhe(3-Cl)]L[NMeL]T[NBuGly][NMeL][Glu(NHSO2Me)][NMePhe(3-Cl)][NMeV]D-Piperidide; lactam N-11) | 0.01 ×10⁻⁶ cm/s | –
5 | CC[C@@H]1NC(=O)[C@H](Cc2ccccc2)N(C)C(=O)[C@H](CC(C)C)N(C)C(=O)[C@H](CC(C)C)NC(=O)[C@H](CC)N(C)C(=O)C[C@@H](C(=O)N2CCCCC2)NC(=O)[C@H](CC(C)C)N(C)C(=O)CN(C)C(=O)[C@H]([C@@H](C)O)NC(=O)CN(CCc2ccccc2)C(=O)[C@H](CC(C)C)N(C)C1=O [pd415] ([NMeAbu]L[NMeL][NMeF][Abu][NMeL][Gly(NCH2CH2Ph)]T[Sar][NMeL]D-Piperidide; lactam N-11) | 3.3 ×10⁻⁶ cm/s | –
6 | CC(C)C[C@H]1C(=O)N[C@@H](C(C)C)C(=O)N(C)[C@@H](Cc2ccccc2)C(=O)N(C)[C@@H](Cc2ccccc2)C(=O)N[C@@H](COC(C)(C)C)C(=O)N(C)[C@@H](CC(C)C)C(=O)N[C@@H](CCCCO)C(=O)N(C)[C@@H](CC(C)C)C(=O)N(C)[C@@H](CC(C)C)C(=O)N[C@H](C(=O)N2CCCCC2)CC(=O)N(C)CCCC(=O)N1C [pd446] ([NMeGABA][NMeL]V[NMeF][NMeF]S(tBu)[NMeL][X3][NMeL][NMeL]D-Piperidide; lactam N-11) | – | Papp A→B at 180 min (Papp, Caco-2 membrane permeability, improved method, read-out: Caco-2): 1.3 ×10⁻⁶ cm/s
7 | CCCN1CC(=O)N(C)[C@@H](CC(C)C)C(=O)N[C@@H](COC(C)(C)C)C(=O)N(C)[C@@H](Cc2ccccc2)C(=O)N(C)[C@@H](Cc2ccccc2)C(=O)N[C@H](C(=O)N2CCCCC2)CC(=O)N[C@H](C)C(=O)N(C)[C@@H](Cc2ccccc2)C(=O)N[C@@H](C(C)C)C(=O)N(C)[C@@H](CC(C)C)C(=O)N[C@@H]([C@@H](C)O)C1=O [pd194] ([dA][NMeF]V[NMeL]T[NPrGly][NMeL]S(tBu)[NMeF][NMeF]D-Piperidide; lactam N-11) | – | Papp A→B at 180 min (Caco-2, Caco-2 (cm/sec)): 5.3 ×10⁻⁶ cm/s
